Mortality and controlling value data for one compound are collected here from patent publication US12144350B2, “Heterocyclic compound and harmful arthropod control composition containing same” (SUMITOMO CHEMICAL COMPANY, LIMITED, priority 2019, dated 2024).

Molecules are shown by their SMILES. Where only a bound is given, the exact number is not on record here.

Assay type in all cases: in vivo
For series [1], the system named is diamondback moth (Plutella xylostella). Nature of the series: Test method 4: sprayed cabbage seedlings, 3rd instar larvae of diamondback moth. To be noted: 500 ppm, spray 20 mL/seedling on cabbage, after 5 days, 25° C. The procedure: (§1) Next, Test Examples are used to show effects of the Present compounds on harmful arthropods. In the following Test Examples, the tests were carried out at 25° C.
(§2) Each test compound is formulated according to the method described in the Formulation Example 5 to obtain each formulation, and water containing Sindaine (registered trademark) (0.03% by volume) is added thereto to prepare a diluted solution containing a prescribed concentration of each test compound.
(§3) Cabbage seedlings (on the developmental stage of the second to third true leaf) are planted in a container, and each of said diluted solutions is sprayed into the seedlings in a ratio of 20 mL/seedlings. Thereafter, the stem and leaf of the seedlings are cut out, and placed into a container lined with a filter paper. Five (5) the 3rd instar larvae of diamondback moth (Plutella xylostella) are released into the container. After 5 days, the number of the surviving insects is counted, and the mortality of insects is calculated by the following equation. Mortality (%)=(1−Number of surviving insects/5)×100

Series [2] concerns cotton aphids (Aphis gossypii). Nature of the series: Test method 2: diluted solution irrigated into plant foot of cucumber seedlings, cotton aphids released after 7 days. To be noted: 1000 ppm, irrigation into plant foot 5 mL/seedling, counted after additional 6 days, 25° C. The procedure: as §1
Each test compound is formulated according to the method described in the Formulation Example 5 to obtain each formulation, and water is added thereto to prepare a diluted solution containing a prescribed concentration of each test compound.
Cucumber seedlings (on the developmental stage of the second true leaf) are planted in a container, and each of said diluted solutions is irrigated into the plant foot in a ratio of 5 mL/seedlings. After 7 days, approximately 30 cotton aphids (Aphis gossypii) (all stages of life) are released onto the surfaces of leaves of the cucumber seedlings. After additional 6 days, the number of the surviving insects is examined and the controlling value is calculated by the following equation. Controlling value (%)={1−(Cb×Tai)/(Cai×Tb)}×100 wherein the symbols in the equation represent the following meanings.
(§4) Cb: Number of the test insects in non-treated area;
Cai: Number of the surviving insects at the time of the investigation in non-treated area;
Tb: Number of the test insects in treated area;
(§5) Tai: Number of the surviving insects at the time of the investigation in treated area; […]

The test system of series [3] is cotton aphids (Aphis gossypii). As to the kind of experiment: Test method 1: diluted solution sprayed on cucumber seedlings infested with cotton aphids. Conditions: 500 ppm, spray 10 mL/seedling on cucumber, 5 days after spraying, 25° C. The method, then: as §1, §2
Cucumber (Cucumis sativus) seedlings (on the developmental stage of the second true leaf) are planted in a container and approximately 30 cotton aphids (Aphis gossypii) (all stages of life) are released onto the cucumber seedlings. After 1 day, each of said diluted solutions is sprayed into the seedlings in a ratio of 10 mL/seedling. After additional 5 days, the number of the surviving insects is examined and the controlling value is calculated by the following equation. Controlling value (%)={1−(Cb×Tai)/(Cai×Tb)}×100 wherein the symbols in the equation represent the following meanings.
as §4
Cai: Number of the surviving insects at the time of the investigation in non-treated area; Tb: Number of the test insects in treated area;
as §5

The subject of series [4] is cotton worm (Spodoptera litura). As to the kind of experiment: Test method 3: sprayed cabbage seedlings, 3rd instar larvae of cotton worm. Conditions: 500 ppm, spray 20 mL/seedling on cabbage, after 5 days, 25° C. The method, then: as §1, §2
as §3, with “Cabbage (Brassicae oleracea)” for “Cabbage”, “cotton worm (Spodoptera litura)” for “diamondback moth (Plutella xylostella)”

The test system of series [5] is western corn rootworm (Diabrotica virgifera virgifera). As to the kind of experiment: Test method 5: corn seedlings immersed in diluted solution, 2nd instar larvae of western corn rootworm. To be noted: 500 ppm, corn seedlings immersed 30 seconds, after 5 days, 25° C. The procedure: as §1
Each test compound is dissolved into a mixed solution (50 μL) of polyoxyethylene sorbitan mono-cocoate and acetone (at a volume ratio of polyoxyethylene sorbitan mono-cocoate:acetone=5:95) per 1 mg of the test compound. Water containing Sindaine (registered trademark) (0.03% by volume) is added thereto to prepare a diluted solution containing a prescribed concentration of each test compound.
Young seedlings of corns (Zea mays) are immersed into each of said diluted solutions for 30 seconds. Thereafter, two of said seedlings are placed into a petri dish (diameter: 90 mm), and 10 the 2nd instar larvae of western corn rootworm (Diabrotica virgifera virgifera) are released into the dish. After 5 days, the number of the dead insects is counted, and the mortality of insects is calculated by the following equation. Mortality (%)=(Number of dead insects/10)×100

As to `CCS(=O)(=O)c1c(-n2ccn3nc(C(F)(F)F)cc3c2=O)nc2ccc(C(F)(F)F)cn12` [compound 2], the mortality in series [1], in series [4] and in series [5] was not below 80% in each case. Also, the controlling value in series [2] and in series [3] was not below 90% each time.
